Tests used:
[1] = test system: full length TNFα (amino acids 1-233) fused to Gaussia Luciferase; experiment: Dox Induced TNFα-FL-Gluc Assay; type: cell-based; settings: 24 hr, Dox inducible, 293FRT/TO cells; read-out: 24 hr Dox Inducible TNFaFLGluc 293FRT/TO: Mean IC50
Procedure, shortened: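 Stable Flp-In 293 T-REx line expressing doxycycline-inducible full-length TNFα fused to Gaussia luciferase; cells plated the day before, then treated with compound dilutions in doxycycline-containing medium at 37° C, 5% CO2. Unspecified stereocentres mean stereoisomer mixtures were tested.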

[2] = test system: multiple myeloma cell line U266B1; experiment: U266 Cell Viability Assay; type: cell-based, human; settings: Homo sapiens, U-266; 48 hr, U266, Celltiter-Glo
Procedure, shortened: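 U266B1 myeloma cells in RPMI 1640 with 10% FBS were treated with compound dilutions for 48 h at 37° C, 5% CO2. Viability was read as CellTiter-Glo luminescence. Data for structures drawn without stereochemistry refer to stereoisomer mixtures.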

[3] = test system: full length IL-2 (amino acids 1-153) fused to Gaussia Luciferase; experiment: Dox Induced IL2-FL-Gluc Assay; type: cell-based; settings: 24 hr, Dox inducible, 293FRT/TO cells; read-out: 24 hr Dox Inducible IL2FLGluc 293FRT/TO: Mean IC50
Procedure, shortened: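 Flp-In 293 T-REx stable line expressing full-length IL-2 (aa 1-153) with C-terminal Gaussia luciferase fusion under doxycycline-inducible control. Cells plated the day before; compound dilutions added in DMSO/media containing doxycycline, incubated at 37° C, 5% CO2.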

[4] = test system: PD1 signal sequence plus 10 amino acids fused to Gaussia Luciferase (PD1-ss+10aa/Gaussia Luciferase); experiment: Dox Induced PD1-ss-Gluc Assay; type: cell-based; settings: 24 hr, Dox inducible, 293FRT/TO cells; read-out: 24 hr Dox Inducible PD1ssGluc 293FRT/TO: Mean IC50
Procedure, shortened: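 Stable Flp-In 293 T-REx line expressing the fusion under tetracycline-inducible control, plated the day before assay. Compound dilutions added with doxycycline and incubated at 37 °C, 5% CO2; unspecified stereocentres mean data refer to stereoisomer mixtures.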

[5] = test system: HER3 signal sequence plus 4 amino acids fused to Gaussia Luciferase (HER3-ss+4aa/Gaussia Luciferase); experiment: Dox Induced HER3-ss-Gluc Assay; type: cell-based; settings: 24 hr, doxycycline induced, Flp-In 293 T-REx cells; read-out: 24 hr Dox Inducible Her3(ss + 4) Gluc 293FRT/TO: Mean 1050
Text: FIp-In 293 T-REx™ cells were transfected with pcDNA™5/FRT/TO plasmid inserted with cDNA encoding Gaussia Luciferase fused to the 3′ end of cDNA encoding HER3 signal sequence plus 4 amino acids (N-[…]-C) (SEQ ID NO: 2). Transfected cells were selected for resistance to the selectable markers Hygromycin and Blasticidin to create a stable cell line that contained the HER3-ss+4aa/Gaussia Luciferase cDNA insert whose expression was regulated under the T-REx™ system. The day before assay, cells were trypsinized and plated in 384-well tissue culture plates. The next day, compound dilutions in DMSO/media containing doxycycline were added to the wells and incubated at 37° C., 5% CO2.
For chemical structures that include one or more stereoisomers, but are illustrated without indicating stereochemistry, the assay data refers to a mixture of stereoisomers.

[6] = In Vitro Microsome Stability Assay (monkey); type: in vitro ADME; settings: monkey liver microsomes, 30 min w/ NADPH
Procedure, shortened: (§1)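 The value reported is the percentage of parent left after 30 min, calculated from analyte/IS peak-area ratios relative to time zero by LC-MS/MS. Incubations ran at 37° C in 0.1 M potassium phosphate with NADPH and microsomes (stock 20 mg/mL), with compound added from a 0.25 mM DMSO stock. Acetonitrile containing IS stopped the reactions.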

[7] = In Vitro Microsome Stability Assay (mouse); type: in vitro ADME; settings: mouse liver microsomes, 30 min w/ NADPH
Procedure, shortened: as §1

[8] = In Vitro Microsome Stability Assay (rat); type: in vitro ADME; settings: rat liver microsomes, 30 min w/ NADPH
Procedure, shortened: as §1

[9] = In Vitro Microsome Stability Assay (human); type: in vitro ADME; settings: human liver microsomes, 30 min w/ NADPH
Procedure, shortened: as §1

[10] = test system: multiple myeloma cell line NCl-H929; experiment: H929 Cell Viability Assay; type: cell-based, human; settings: Homo sapiens, NCI-H929, 48 h, H929, Celltiter-Glo
Procedure, shortened: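 NCI-H929 myeloma cells in RPMI 1640 with 10% FBS were treated with compound dilutions for 48 h at 37 °C, and viability was then read by CellTiter-Glo luminescence. Compounds drawn without stereochemistry were tested as stereoisomer mixtures.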

Structure (SMILES)	IC50 [1] [nM]	EC50 [2] [nM]	IC50 [3] [nM]	IC50 [4] [nM]	IC50 [5] [nM]	Liver Microsome Stability-% Left after 30 min w/ NADPH (%) Monkey [6] [%]	Liver Microsome Stability-% Left after 30 min w/ NADPH (%) Mouse [7] [%]	Liver Microsome Stability-% Left after 30 min w/ NADPH (%) Rat [8] [%]	Liver Microsome Stability-% Left after 30 min w/ NADPH (%) Human [9] [%]	EC50 [10] [nM]
C[C@H]1CN(S(=O)(=O)c2ccc(N(C)C)cc2)CCCN(CCC2CC2)CCCN(S(=O)(=O)N2CCc3cc(Cl)ccc3C2)C1 [A122, 4-{[(3S)-5-[(6-chloro-1,2,3,4-tetrahydroisoquinolin-2-yl)sulfonyl]-9-(2-cyclopropylethyl)-3-methyl-1,5,9-triazacyclododecan-1-yl]sulfonyl}-N,N-dimethylaniline]	885	> 25000	135	51.9	111	0.15	36.4	0.17	0.38	2420
C[C@H]1CN(S(=O)(=O)c2ccc(N(C)C)cc2)CCCN(Cc2ccon2)CCCN(S(=O)(=O)N2CCc3cc(Cl)ccc3C2)C1 [A124, 4-{[(3S)-5-[(6-chloro-1,2,3,4-tetrahydroisoquinolin-2-yl)sulfonyl]-3-methyl-9-[(1,2-oxazol-3-yl)methyl]-1,5,9-triazacyclododecan-1-yl]sulfonyl}-N,N-dimethylaniline]	> 25000	> 25000	802	607	913	1.91	1.01	1.25	18.9	> 25000
C[C@H]1CN(S(=O)(=O)c2ccc(C(=O)N(C)C)cc2)CCCN(CC2CCCCC2)CCCN(S(=O)(=O)N2CCc3cc(Cl)ccc3C2)C1 [A179, 4-{[(3S)-5-[(6-chloro-1,2,3,4-tetrahydroisoquinolin-2-yl)sulfonyl]-9-(cyclohexylmethyl)-3-methyl-1,5,9-triazacyclododecan-1-yl]sulfonyl}-N,N-dimethylbenzamide]	3250	> 25000	72.6	270	400	0.26	0.5	0.18	0.04	11300
CC[C@H]1CN(S(=O)(=O)c2ccc(N(C)C)cc2)CCCN(CC2CCCCC2)CCCN(S(=O)(=O)N2CCc3cc(Cl)ccc3C2)C1 [A182]	1960	> 25000	256	78.8	203	41.5	61.7	41.9	53.7	> 25000
C[C@H]1CN(S(=O)(=O)c2ccc(N(C)C)cc2)CCCN(CC2CCCCC2)CCCN(S(=O)(=O)N(C)Cc2ccccc2)C1 [A184, (3S)-N-benzyl-9-(cyclohexylmethyl)-5-[4-(dimethylamino)benzenesulfonyl]-N,3-dimethyl-1,5,9-triazacyclododecane-1-sulfonamide]	1080	> 25000	233	100	156	1.23	5.64	7.47	2.56	6920
C[C@@H]1CN(S(=O)(=O)NCc2ccccc2)CCCN(CC2CCCCC2)CCCN(S(=O)(=O)c2ccc(N(C)C)cc2)C1 [A187, (3S)-N-benzyl-9-(cyclohexylmethyl)-5-[4-(dimethylamino)benzenesulfonyl]-3-methyl-1,5,9-triazacyclododecane-1-sulfonamide]	6170	> 25000	1090	427	802	0.15	0.03	0.07	0.05	3870
CCc1ccc(CNS(=O)(=O)N2CCCN(CC3CCCCC3)CCCN(S(=O)(=O)c3ccc(N(C)C)cc3)C[C@H](C)C2)cc1 [A189, (3S)-9-(cyclohexylmethyl)-5-[4-(dimethylamino)benzenesulfonyl]-N-[(4-ethylpheny)methyl]-3-methyl-1,5,9-triazacyclododecane-1-sulfonamide]	8140	> 25000	1360	512	960	0.01	0.14	0.07	0.06	10600

Stronger by IC50 [1], values ahead:

IC50 [1] [nM]	EC50 [2] [nM]	IC50 [3] [nM]	IC50 [4] [nM]	IC50 [5] [nM]	Liver Microsome Stability-% Left after 30 min w/ NADPH (%) Monkey [6] [%]	Liver Microsome Stability-% Left after 30 min w/ NADPH (%) Mouse [7] [%]	Liver Microsome Stability-% Left after 30 min w/ NADPH (%) Rat [8] [%]	Liver Microsome Stability-% Left after 30 min w/ NADPH (%) Human [9] [%]	EC50 [10] [nM]	Structure (SMILES)
714	> 25000	99.3	38.9	88	12.4	4.48	27.8	27	1560	C[C@H]1CN(S(=O)(=O)c2ccc3c(ccn3C)c2)CCCN(CC2CCCCC2)CCCN(S(=O)(=O)N2CCc3cc(Cl)ccc3C2)C1 [A188, 6-chloro-2-{[(3S)-9-(cyclohexylmethyl)-3-methyl-5-[(1-methyl-1 H-indol-5-yl)sulfonyl]-1,5,9-triazacyclododecan-1-yl]sulfonyl}-1,2,3,4-tetrahydroisoquinoline]
573	> 25000	85.4	43.2	85.5	10.0	30.1	37.8	21.8	1470	C[C@H]1CN(S(=O)(=O)c2ccc(N(C)C)cc2)CCCN(CC2CCC(F)(F)CC2)CCCN(S(=O)(=O)N2CCc3cc(Cl)ccc3C2)C1 [A185, 4-{[(3S)-5-[(6-chloro-1,2,3,4-tetrahydroisoquinolin-2-yl)sulfonyl]-9-[(4,4-difluorocyclohexyl)methyl]-3-methyl-1,5,9-triazacyclododecan-1-yl]sulfonyl}-N,N-dimethylaniline]
295	> 25000	45.7	16.2	35.6	71.6	69.3	85.3	74.1	867	C[C@H]1CN(S(=O)(=O)c2ccc(N(C)C)cc2)CCCN([C@@H](C)C2CCCCC2)CCCN(S(=O)(=O)N2CCc3cc(Cl)ccc3C2)C1 [A190, 4-{[(3S)-5-[(6-chloro-1,2,3,4-tetrahydroisoquinolin-2-yl)sulfonyl]-9-[(1 S)-1-cyclohexylethyl]-3-methyl-1,5,9-triazacyclododecan-1-yl]sulfonyl}-N,N-dimethylaniline]

Reference: US11578055B2, “Triazacyclododecansulfonamide (“TCD”)-based protein secretion inhibitors” (KEZAR LIFE SCIENCES, priority 2018, dated 2023)
